Here are results for 47 molecules from the Biogen ADME set (Fang et al. 2023).

Molecules are shown by their SMILES. Values after ≈ are worked out from the molar mass of the structure shown.

By aqueous solubility is commonly meant the dissolved amount per volume that the medium holds. Higher therefore signals much dissolved substance.

The conditions of this data set: for aqueous solubility: pH 6.8.

Take `Cc1nc2ccc(C(=O)NCCCN3Cc4ccccc4C3)cc2[nH]1`: the aqueous solubility came to 52.4 µg/mL (≈ 157 µM).
As for `Cc1nc(C#N)c(C#N)n1Cc1csc(-c2cccs2)n1`, the intrinsic clearance, human liver microsomes is 88.8 mL/min/kg; the intrinsic clearance, rat liver microsomes worked out at 1710 mL/min/kg; the aqueous solubility is 32.2 µg/mL (≈ 104 µM).
With `Cc1cnc(Cl)nc1-c1ccc(N(Cc2ccc(CNC(=O)C(F)F)cc2)C(=O)c2ccc(O)cc2O)cc1`, the MDR1-MDCK efflux ratio is 54.7; the intrinsic clearance, human liver microsomes is 41.3 mL/min/kg; the intrinsic clearance, rat liver microsomes amounted to 84.6 mL/min/kg; the aqueous solubility turned out to be 27.6 µg/mL (≈ 49.8 µM).
`Cc1nnc(CN(C)CC(C)Oc2ccc(Cl)c(Cl)c2)n1C` (centres undefined): the MDR1-MDCK efflux ratio is 7.09; the fraction unbound, human plasma was found to be 0.0844; the fraction unbound, rat plasma was found to be 0.13; the intrinsic clearance, human liver microsomes came out at 132 mL/min/kg. For the same molecule, the intrinsic clearance, rat liver microsomes came out at 1440 mL/min/kg and the aqueous solubility was found to be 33 µg/mL (≈ 96.1 µM).
On to `CC(C)c1nnc(CN2CCN(c3ccccc3Cl)CC2)o1`, for which the MDR1-MDCK efflux ratio is 0.652; the intrinsic clearance, human liver microsomes worked out at 91 mL/min/kg; the intrinsic clearance, rat liver microsomes turned out to be 869 mL/min/kg; the aqueous solubility is 50.7 µg/mL (≈ 158 µM).
In the case of `O=C(O)CNc1nc(-c2ccccc2)nc2ccccc12`, the MDR1-MDCK efflux ratio is 0.737; the intrinsic clearance, human liver microsomes was not above 4.74 mL/min/kg; the intrinsic clearance, rat liver microsomes turned out to be 29.4 mL/min/kg; the aqueous solubility was found to be 25.4 µg/mL (≈ 90.8 µM).
In the same order, the values of `O=C(CCCc1nc2ccccc2[nH]1)N1CCCC1` are 17.5, not above 4.74 mL/min/kg, 85 mL/min/kg and 35.8 µg/mL (≈ 139 µM).
On to `Cn1c2cc(S(C)=O)sc2c2cnn(Cc3cccc(N)c3)c(=O)c21` (centres undefined), for which the intrinsic clearance, human liver microsomes turned out to be 4.92 mL/min/kg and the intrinsic clearance, rat liver microsomes came out at 49.6 mL/min/kg.
For the molecule `CCc1nc(N2CC(CO)C2)c2ccsc2n1`, the MDR1-MDCK efflux ratio came out at 1.33; the intrinsic clearance, human liver microsomes is 10.7 mL/min/kg; the intrinsic clearance, rat liver microsomes came out at 50 mL/min/kg.
Regarding `O=C(Cn1c(=O)c2cccn2c2ccccc21)NCCCN1CCCC1`, the MDR1-MDCK efflux ratio turned out to be 78.1; the intrinsic clearance, human liver microsomes was not above 4.74 mL/min/kg; the intrinsic clearance, rat liver microsomes stood at 634 mL/min/kg; the aqueous solubility was 52.3 µg/mL (≈ 148 µM).
With `CC1CCC(O)(CSc2nncn2C(C)C)CC1` (centres undefined), the MDR1-MDCK efflux ratio stood at 0.85; the intrinsic clearance, human liver microsomes was found to be 6.42 mL/min/kg; the intrinsic clearance, rat liver microsomes amounted to 214 mL/min/kg.
As to `Cc1ccc(Nc2ccnc(Nc3ccc(C)cc3)n2)cc1`, the MDR1-MDCK efflux ratio turned out to be 0.2; the intrinsic clearance, human liver microsomes is 85.2 mL/min/kg; the intrinsic clearance, rat liver microsomes was 477 mL/min/kg.
With `Cc1nc(CC(=O)NCc2ccccc2)cs1`, the MDR1-MDCK efflux ratio amounted to 0.79; the intrinsic clearance, human liver microsomes was not above 4.74 mL/min/kg; the intrinsic clearance, rat liver microsomes was 39 mL/min/kg; the aqueous solubility amounted to 26 µg/mL (≈ 106 µM).
On to `Cc1nn(-c2ccccc2)c(C)c1CN`, for which the aqueous solubility came out at 20.2 µg/mL (≈ 101 µM).
For `CN(C)c1cncc(-c2ccc(S(=O)(=O)N(C)C)cc2)n1`, the MDR1-MDCK efflux ratio amounted to 0.61; the intrinsic clearance, human liver microsomes is 80.8 mL/min/kg; the intrinsic clearance, rat liver microsomes turned out to be 2430 mL/min/kg.
Regarding `O=C1NCCSc2c1sc1ccc(O)cc21`, the fraction unbound, human plasma was determined as 0.0779; the fraction unbound, rat plasma stood at 0.146; the intrinsic clearance, human liver microsomes turned out to be 48.8 mL/min/kg; the intrinsic clearance, rat liver microsomes stood at 95.1 mL/min/kg.
Molecule `Nc1ccccc1-c1nc(C2CCCCCC2)no1` displayed an intrinsic clearance, human liver microsomes of 47.7 mL/min/kg and an intrinsic clearance, rat liver microsomes of 1310 mL/min/kg.
`O=C(Nc1cc(C2CC2)n[nH]1)C1CCN(C(=O)COc2ccccc2)CC1` had an aqueous solubility of 42.5 µg/mL (≈ 115 µM).
On to `CC(C)S(=O)(=O)c1ccc2nccc(Nc3ccc4scnc4c3)c2c1`, for which the MDR1-MDCK efflux ratio amounted to 14.6 and the aqueous solubility amounted to 38.5 µg/mL (≈ 100 µM).
The molecule `COc1cc(Nc2ncc(F)c(Nc3ccc4c(n3)NC(=O)C(C)(C)O4)n2)cc(OC)c1OC` showed an intrinsic clearance, human liver microsomes of 133 mL/min/kg and an intrinsic clearance, rat liver microsomes of 122 mL/min/kg.
Consider `Cc1ccc2nc(C)c(C(=O)NOCc3ccccc3)cc2c1`, for which the MDR1-MDCK efflux ratio amounted to 0.666; the intrinsic clearance, human liver microsomes came out at 19.3 mL/min/kg; the intrinsic clearance, rat liver microsomes stood at 308 mL/min/kg; the aqueous solubility stood at 20.2 µg/mL (≈ 65.8 µM).
In the same order, the values of `Cc1ccc(-c2nc(C(=O)N3CCc4ccccc4C3)cs2)o1` are 0.421, 187 mL/min/kg, 3610 mL/min/kg and 36 µg/mL (≈ 111 µM).
For `Cn1c(CNC(=O)Cc2ccccc2)nc2ccccc21`, the MDR1-MDCK efflux ratio turned out to be 2.25; the intrinsic clearance, human liver microsomes was determined as 7.54 mL/min/kg; the intrinsic clearance, rat liver microsomes is 89.6 mL/min/kg; the aqueous solubility worked out at 44.8 µg/mL (≈ 160 µM).
For `Cc1cccc(N2CCN(C(=O)c3cncnc3C(C)C)CC2)c1` the same measures were 0.882, 144 mL/min/kg, 1500 mL/min/kg and 73.9 µg/mL (≈ 228 µM).
Consider `Cc1ncc(-c2ccccn2)c(CCNC(=O)C2CCCC2)n1`, for which the MDR1-MDCK efflux ratio came out at 7.73; the intrinsic clearance, human liver microsomes came to 7.32 mL/min/kg; the intrinsic clearance, rat liver microsomes was determined as 90.7 mL/min/kg.
Molecule `c1ccc2[nH]c(SCc3cn4ccccc4n3)nc2c1` showed an intrinsic clearance, human liver microsomes of 86.2 mL/min/kg; an intrinsic clearance, rat liver microsomes of 462 mL/min/kg; an aqueous solubility of 44.9 µg/mL (≈ 160 µM).
With `Cc1nc(C)c2c(C)c(C(=O)N(C)Cc3ccc(C)o3)sc2n1`, the MDR1-MDCK efflux ratio stood at 1.1; the intrinsic clearance, human liver microsomes worked out at 36 mL/min/kg; the intrinsic clearance, rat liver microsomes worked out at 2890 mL/min/kg; the aqueous solubility was 37.5 µg/mL (≈ 114 µM).
As to `COc1cc(-c2ccc(Cn3nc(C)cc3C)cn2)cc(OC)c1OC`, the MDR1-MDCK efflux ratio amounted to 1.65; the intrinsic clearance, human liver microsomes was found to be 46.1 mL/min/kg; the intrinsic clearance, rat liver microsomes was 345 mL/min/kg.
Consider `OC1(Cn2nnc(-c3cccnc3)n2)CCCCC1`, for which the MDR1-MDCK efflux ratio was 0.66; the intrinsic clearance, human liver microsomes is not above 4.74 mL/min/kg; the intrinsic clearance, rat liver microsomes stood at 142 mL/min/kg; the aqueous solubility was determined as 25.1 µg/mL (≈ 96.7 µM).
Regarding `COc1cc2ncnc(Nc3cccc(O)c3)c2cc1OC`, the fraction unbound, human plasma stood at 0.0987; the fraction unbound, rat plasma worked out at 0.0447; the intrinsic clearance, human liver microsomes stood at 22 mL/min/kg; the intrinsic clearance, rat liver microsomes is 154 mL/min/kg.
Regarding `Cc1nnnn1CCN(C)c1ccccc1`, the MDR1-MDCK efflux ratio came to 0.596; the intrinsic clearance, human liver microsomes was 8.8 mL/min/kg; the intrinsic clearance, rat liver microsomes was found to be 221 mL/min/kg; the aqueous solubility is 11.2 µg/mL (≈ 51.4 µM).
In the same order, the values of `Cc1ncccc1CNc1nnc(C(C)(C)C)s1` are 1.28, not above 4.74 mL/min/kg, 19.3 mL/min/kg and 40.9 µg/mL (≈ 156 µM).
`CCOC(=O)c1ccc(S(=O)(=O)N2CCc3cc(C(=O)OC)ccc32)cc1` showed an aqueous solubility of 0.83 µg/mL (≈ 2.13 µM).
Take `Cc1ccc(-c2noc3nc(C)cc(C(=O)O)c23)cc1`: the MDR1-MDCK efflux ratio is 2.93; the intrinsic clearance, human liver microsomes was not above 4.74 mL/min/kg; the intrinsic clearance, rat liver microsomes was not above 10.7 mL/min/kg; the aqueous solubility is 74.3 µg/mL (≈ 277 µM).
In the case of `COc1cccc(NC(=O)c2c([O-])n(-c3cccc(OC)c3)n[n+]2C)c1`, the MDR1-MDCK efflux ratio worked out at 0.637 and the aqueous solubility is 0.19 µg/mL (≈ 0.536 µM).
Regarding `O=C(c1ccc(Cl)cc1)N1CCC(c2nnc3n2CCCC3)CC1`, the MDR1-MDCK efflux ratio was determined as 128; the intrinsic clearance, human liver microsomes was not above 4.74 mL/min/kg; the intrinsic clearance, rat liver microsomes was not above 10.7 mL/min/kg.
In the case of `CC(=O)Nc1ccnn1C1CCN(Cc2ccccc2C#Cc2ccccc2)CC1`, the MDR1-MDCK efflux ratio worked out at 26.5; the intrinsic clearance, human liver microsomes amounted to 82.5 mL/min/kg; the intrinsic clearance, rat liver microsomes stood at 507 mL/min/kg; the aqueous solubility stood at 25.8 µg/mL (≈ 64.8 µM).
In the case of `Cc1c[nH]c(CNCc2ccccc2CC(C)C)n1`, the MDR1-MDCK efflux ratio came out at 3.79; the intrinsic clearance, human liver microsomes came out at 35.6 mL/min/kg; the intrinsic clearance, rat liver microsomes was 2700 mL/min/kg.
As for `COc1ccc(CCCN2CCN(c3cnn(C)c3)C(=O)C2)cc1F`, the MDR1-MDCK efflux ratio stood at 0.734; the fraction unbound, human plasma came to 0.221; the fraction unbound, rat plasma was found to be 0.203; the intrinsic clearance, human liver microsomes was not above 4.74 mL/min/kg. The molecule also returned an intrinsic clearance, rat liver microsomes of 44.1 mL/min/kg.
Take `c1cnc(N2CCC(Cc3ccncc3)CC2)nc1`: the MDR1-MDCK efflux ratio came to 0.575; the intrinsic clearance, human liver microsomes was 10.9 mL/min/kg; the intrinsic clearance, rat liver microsomes amounted to 146 mL/min/kg; the aqueous solubility came out at 58.1 µg/mL (≈ 228 µM).
Turning to `Cc1nccc(C2(C)CCN(CC(N)=O)CC2)n1`, the MDR1-MDCK efflux ratio came to 2.82; the intrinsic clearance, human liver microsomes was not above 4.74 mL/min/kg; the intrinsic clearance, rat liver microsomes is not above 10.7 mL/min/kg; the aqueous solubility turned out to be 59.8 µg/mL (≈ 241 µM).
In the same order, the values of `N#Cc1cccnc1NCCc1cn2c(n1)CCCC2` are 1.33, 11.5 mL/min/kg, 2440 mL/min/kg and 52.4 µg/mL (≈ 196 µM).
Take `Cc1ccc(C(=O)NC2CCN(CC#N)CC2)cc1Br`: the MDR1-MDCK efflux ratio worked out at 0.9; the intrinsic clearance, human liver microsomes was not above 4.74 mL/min/kg; the intrinsic clearance, rat liver microsomes amounted to 97.6 mL/min/kg; the aqueous solubility was found to be 2.04 µg/mL (≈ 6.07 µM).
For `CCN(CC)C(=O)N1CCC(C(=O)O)CC1` the same measures were 4.41, not above 4.74 mL/min/kg, not above 10.7 mL/min/kg and 60.2 µg/mL (≈ 264 µM).
For the molecule `Cc1ccc(C(=O)NCCc2ccc(F)cc2)o1`, the MDR1-MDCK efflux ratio came out at 0.511; the intrinsic clearance, human liver microsomes is 22 mL/min/kg; the intrinsic clearance, rat liver microsomes is 140 mL/min/kg.
In the case of `Cc1cccc(Nc2ccc(C3CCN(C(=O)c4cc5cc(F)ccc5n4C)CC3)nc2)n1`, the MDR1-MDCK efflux ratio was determined as 1.5 and the aqueous solubility stood at 0.19 µg/mL (≈ 0.428 µM).
Molecule `CCNC(=O)c1cc(N2CCC(N3CCCC3=O)CC2)ccn1` gave an intrinsic clearance, human liver microsomes not above 4.74 mL/min/kg and an intrinsic clearance, rat liver microsomes not above 10.7 mL/min/kg.
